Source: patent publication US7879878B2, “Quinolone derivative or salt thereof” (Astellas Pharma Inc., priority 2003, dated 2011)

Columns and labels:
[1] = system: Human platelet aggregation; assay: Test for assaying human platelet aggregation-inhibiting activity (ADP-induced aggregation in platelet-enriched plasma); assay type: cell-based; details: compound at 10 μM final concentration; human PRP; aggregation induced by ADP; area-under-the curve of platelet aggregation as indicator; read-out: % inhibition (Human platelet aggregation-inhibiting action)
Description: (1) Test for Assaying Human Platelet Aggregation-Inhibiting Activity
Blood was withdrawn from healthy human volunteers (adult males), in the presence of a 1/10th volume of sodium citrate, and centrifuged to obtain supernatant platelet-enriched plasma (PRP). The platelet count in PRP was determined with an automatic blood cell counter (MEK-6258; manufactured by NIHON KOHDEN CORPORATION). Then, the platelet count in PRP was adjusted to 3×10^8/ml with platelet-poor plasma. ADP as a platelet aggregation-inducing agent was a product of MCMEDICAL, Inc. Platelet aggregation was measured using an aggregometer (MCM Hematracer 212; MCMEDICAL, Inc.). Specifically, 80 μl of PRP and 10 μl of a solution of an active ingredient or compound of the invention or a solvent (10% DMSO) were incubated together at 37° C. for one minute, to which 10 μl of ADP (50 μM) was added to induce platelet aggregation. Then, the change of the transmitting light was recorded over 5 minutes. Using the area-under-the curve of platelet aggregation as an indicator, the inhibition ratio was calculated.

[2] = molecular target: T1, human P2Y12 (Homo sapiens, UniProt Q9H244); assay: Substitution test of the binding between human P2Y12 and 2-methylthio-ADP (2-MeS-ADP); details: compound at 30 nM final concentration; [3H]-2-MeS-ADP; membrane fraction of C6-15 cells expressing human P2Y12
T1 construct: expressed in transfected cells; membrane fraction
T1 sequence (Q9H244 whole entry): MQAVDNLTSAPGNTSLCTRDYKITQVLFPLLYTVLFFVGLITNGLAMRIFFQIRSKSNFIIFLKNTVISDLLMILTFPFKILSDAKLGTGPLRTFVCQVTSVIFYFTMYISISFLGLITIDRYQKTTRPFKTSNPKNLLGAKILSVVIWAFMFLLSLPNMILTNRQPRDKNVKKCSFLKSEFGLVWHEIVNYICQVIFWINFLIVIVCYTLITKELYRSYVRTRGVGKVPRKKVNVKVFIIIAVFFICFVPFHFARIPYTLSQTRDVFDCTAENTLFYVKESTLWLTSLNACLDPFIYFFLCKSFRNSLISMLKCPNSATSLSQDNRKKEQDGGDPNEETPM
Description: (2) Substitution Test of the Binding Between Human P2Y12 and 2-methylthio-ADP (2-MeS-ADP)
After C6-15 cells were inoculated on a DMEM culture medium to 1×10^6 cells in a 10-cm petri dish for culturing for one day, where 8 μg of a plasmid pEF-BOS-dhfr-human P2Y12 and 0.8 μg of pEF-BOS-neo (Nucleic Acid Res., 18, 5322, 1990) were genetically introduced with a transfection reagent (LipofectAMINE 2000; manufactured by GIBCO BRL).
24 hours after the gene introduction procedure described above, the cells with the gene introduced therein were recovered and suspended in a DMEM culture medium containing 0.6 mg/ml G418 (manufactured by GIBCO BRL), to prepare serial dilutions, which were inoculated on a 10-cm petri dish. Colonies appearing 2 weeks later were individually obtained and defined as C6-15 cell expressing the protein P2Y12, for use in the following experiment (WO 02/36631, Mol. Pharmacol., 60, 432, 2001).
The C6-15 cell expressing the protein P2Y12 was cultured and recovered. […]
1.5 μl of an active ingredient or compound of the invention and 50 μl of 0.75 nM [^3H]-2-MeS-ADP (80 Ci/mmol; manufactured by Amersham Pharmacia Biotech) were added to 100 μl of the P2Y12 protein-expressing C6-15 cell membrane fraction (100 μg/ml) thus prepared, for incubation in 50 mM Tris-HCl, pH 7.4 containing 100 mM NaCl and 50 mM MgCl2, at ambient temperature for one hour. […] Adding a microscintillator onto the glass filter, the radioactivity was assayed with a liquid scintillation counter. At the test, additionally, the radioactivity levels of such cell cultures with no addition of the compound and with addition of 1.5 μl of 100 μM 2-MeS-ADP were assayed as total binding and non-specific binding, respectively. Defining the total binding and the non-specific binding at inhibition ratios of 0% and 100%, respectively, the inhibition ratio (%) of an active ingredient or compound in accordance with the invention was calculated.

| Structure (SMILES) | inhibition at 10 µM [1] [%] | inhibition at 0.03 µM [2] [%] | % inhibition (Inhibition activity of the binding between P2Y12 and 2-MeS-ADP) [2] [%] |
| --- | --- | --- | --- |
| CC1(C)OCC(n2cc(C(=O)NCCP(=O)(O)O)c(=O)c3cc(F)c(NC4CCCCC4)cc32)CO1 [Example 18, [2-({[7-(cyclohexylamino)-1-(2,2-dimethyl-1,3-dioxan-5-yl)-6-fluoro-4-oxo-1,4-dihydroquinolin-3-yl]carbonyl}amino)ethyl]phosphonic acid] | 92 | 96 | – |
| CCOP(=O)(O)CCNC(=O)c1cn(C(CO)CO)c2cc(NC3CCCCC3)c(F)cc2c1=O [Example 22, ethyl{2-[({7-(cyclohexylamino)-6-fluoro-4-oxo-1-[2-hydroxy-1-(hydroxymethyl)ethyl]-4-oxo-1,4-dihydroquinolin-3-yl}carbonyl)amino]ethyl}phosphonic acid] | – | – | 75 |
| CCC(CC)n1cc(C(=O)NC(C)(C)C(=O)O)c(=O)c2cc(F)c(NC3CCCCC3)cc21 [Example 28, 2-({[7-(cyclohexylamino)-1-(1-ethylpropyl)-6-fluoro-4-oxo-1,4-dihydroquinolin-3-yl]carbonyl}amino)-2-methylpropionic acid] | – | 63 | – |
